The values below come from US10793559B2, “Chemical compounds” (GlaxoSmithKline Intellectual Property Development Limited, priority 2016, dated 2020).

For experiment [1], the system named is amphetamine-induced psychosis. Conditions: Law et al. 2012; cited from earlier work.
The target of experiment [2] is PI3K-Delta (Homo sapiens, UniProt O00329). Put plainly: PI3K HTRF assay (PI3K Delta). The format is biochemical. The conditions noted are these: PI3K-Delta 1.5 nM, 80 μM ATP, 10 μM PIP2 final, read-out: mean pIC50 in the PI3K Delta assay (converted). The protocol: Biological Data PI3K HTRF Assay
Sequence of PI3K-Delta (O00329 whole entry): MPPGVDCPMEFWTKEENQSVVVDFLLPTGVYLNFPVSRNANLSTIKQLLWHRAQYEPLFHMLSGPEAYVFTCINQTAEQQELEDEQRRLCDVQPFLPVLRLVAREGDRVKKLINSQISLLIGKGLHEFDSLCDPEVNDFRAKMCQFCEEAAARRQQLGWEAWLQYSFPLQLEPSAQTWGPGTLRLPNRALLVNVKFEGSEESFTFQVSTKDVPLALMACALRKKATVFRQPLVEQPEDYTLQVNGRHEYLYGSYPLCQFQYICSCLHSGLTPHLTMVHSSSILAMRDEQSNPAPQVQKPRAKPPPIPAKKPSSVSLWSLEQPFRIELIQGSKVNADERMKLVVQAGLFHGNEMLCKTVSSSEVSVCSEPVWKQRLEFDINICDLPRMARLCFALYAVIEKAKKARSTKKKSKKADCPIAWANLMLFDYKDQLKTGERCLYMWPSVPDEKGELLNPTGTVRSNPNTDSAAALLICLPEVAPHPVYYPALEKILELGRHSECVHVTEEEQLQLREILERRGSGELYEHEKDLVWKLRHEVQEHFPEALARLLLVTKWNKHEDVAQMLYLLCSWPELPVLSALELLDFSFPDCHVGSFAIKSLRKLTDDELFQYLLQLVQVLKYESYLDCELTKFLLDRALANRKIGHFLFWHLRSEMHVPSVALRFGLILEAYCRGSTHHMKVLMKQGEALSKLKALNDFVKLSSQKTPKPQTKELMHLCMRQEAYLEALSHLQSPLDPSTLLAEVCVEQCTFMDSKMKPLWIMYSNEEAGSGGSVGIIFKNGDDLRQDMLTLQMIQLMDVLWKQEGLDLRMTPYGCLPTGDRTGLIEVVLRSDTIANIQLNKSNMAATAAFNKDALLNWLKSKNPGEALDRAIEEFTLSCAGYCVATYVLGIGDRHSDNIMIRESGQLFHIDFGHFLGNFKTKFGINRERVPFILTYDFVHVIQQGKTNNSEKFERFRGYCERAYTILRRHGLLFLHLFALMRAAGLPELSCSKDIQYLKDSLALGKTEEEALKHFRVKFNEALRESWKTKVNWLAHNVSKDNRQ
Sequence of PI3K-Delta (P27986 whole entry partner): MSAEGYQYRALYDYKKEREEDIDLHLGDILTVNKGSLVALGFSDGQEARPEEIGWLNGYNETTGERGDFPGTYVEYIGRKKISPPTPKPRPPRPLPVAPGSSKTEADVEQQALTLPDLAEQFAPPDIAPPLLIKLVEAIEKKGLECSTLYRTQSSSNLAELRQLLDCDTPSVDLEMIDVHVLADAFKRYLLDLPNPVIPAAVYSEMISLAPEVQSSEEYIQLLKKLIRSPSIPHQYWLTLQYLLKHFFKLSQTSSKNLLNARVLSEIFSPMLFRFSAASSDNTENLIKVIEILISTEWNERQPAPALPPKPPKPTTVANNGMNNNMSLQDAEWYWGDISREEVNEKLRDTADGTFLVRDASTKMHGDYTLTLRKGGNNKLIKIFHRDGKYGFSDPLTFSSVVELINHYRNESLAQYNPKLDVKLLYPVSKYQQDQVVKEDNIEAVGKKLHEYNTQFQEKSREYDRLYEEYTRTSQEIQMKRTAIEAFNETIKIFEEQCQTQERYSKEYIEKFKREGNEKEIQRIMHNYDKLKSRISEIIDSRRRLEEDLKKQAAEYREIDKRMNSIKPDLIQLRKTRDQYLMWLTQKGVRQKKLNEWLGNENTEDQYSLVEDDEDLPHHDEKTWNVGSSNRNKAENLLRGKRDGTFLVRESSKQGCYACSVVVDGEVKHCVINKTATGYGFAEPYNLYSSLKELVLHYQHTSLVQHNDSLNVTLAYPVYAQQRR
The binding of compounds to PI3K-alpha/beta/delta/gamma is determined by homogeneous time resolved fluorescence (HTRF) assays as follows;
Briefly, solid compound is dissolved in 100% DMSO at a concentration of 2 mM. Dilutions are prepared in 100% DMSO using a 1 in 4 serial step dilution. The dilutions are transferred to black low volume Greiner assay plates ensuring that the DMSO concentration is constant across the plate at 1% (0.1 ul/well).
PI3K Reaction Buffer (contains 50 mM HEPES pH7.0 (NaOH), 150 mM NaCl, 10 mM MgCl2, 2.3 mM sodium cholate, 10 μM CHAPS made up in milliQ water). Fresh DTT is added at a final concentration of 1 mM on the day of use. Wortmannin at a concentration sufficient to produce 100% inhibition (8.33e-6 M) is added to column 18 of compound plates.
Enzyme solutions: 1× PI3K assay Buffer containing: • 550 pM PI3K-Alpha enzyme (275 pM final assay concentration) • 800 pM PI3K-Beta enzyme (400 pM final assay concentration) • 3 nM PI3K-Delta enzyme (1.5 nM final assay concentration) • 10 nM PI3K-Gamma enzyme (5 nM final assay concentration)
These concentrations are optimal to achieve a signal:background of between 1.5-4.5. The enzyme solution is added to columns 1-24 (3 ul/well) and plates are incubated for 15 minutes at room temperature.
Substrate solution: 1× PI3K assay buffer containing: • PI3K-Alpha: 500 μM ATP, 20 μM PIP2 and 120 nM biotin-PIP3. (Final assay concentrations are 250 μM ATP, 10 μM PIP2 (both at Km) and 40 nM biotin-PIP3) • PI3K-Beta: 800 μM ATP, 20 μM PIP2 and 120 nM biotin-PIP3. (Final assay concentrations are 400 μM ATP, 10 μM PIP2 (both at Km) and 40 nM biotin-PIP3) • PI3K-Delta: […], 20 μM PIP2 and 120 nM biotin-PIP3. (Final assay concentrations are 80 μM ATP, 10 μM PIP2 (both at Km) and 40 nM biotin-PIP3) • PI3K-Gamma: 30 μM ATP, 20 μM PIP2 and 120 nM biotin-PIP3.
This is added to all wells and plates are incubated for 1 hour at room temperature.
Detection solution: PI3K Detection Buffer (contains 50 mM HEPES pH7.0 (HCl), 150 mM NaCl, 2.3 mM sodium cholate, 10 μM CHAPS, 240 mM potassium fluoride) containing 2 mM DTT (2× final concentration), 90 nM GRP-1 PH domain, 300 nM Streptavidin-APC and 24 nM Europium-anti-GST (6× final concentrations)
This is mixed left at room temperature (protected from light).
STOP solution: PI3K STOP Buffer (contains 50 mM HEPES pH7.0 (HCl), 150 mM NaCl, 2.3 mM sodium cholate, 10 μM CHAPS, 150 mM EDTA).
Detection solution is diluted 1:1 with STOP solution and added to all wells (3 ul/well). Plates are covered and incubated on the bench for 45-60 minutes. Plates are read on a PerkinElmer Envision, measuring TR-FRET between the complex formed between the GST-tagged PH domain and biotinylated PIP3 which both recruit fluorophores (Europium-labelled anti-GST & Strep-APC respectively). […], this complex is disrupted by the competitive action of non-biotinylated PIP3 (formed in the assay by the phosphorylation of PIP2 by the kinase & ATP). From this, the ratio of acceptor/donor was calculated (Aex=317 nm, Aem donor=615 nm, em acceptor=665 nm) and used for data analysis.
(In general: In TR-FRET formats the signal depends on donor and acceptor labels being close together.)

Where only a bound is given, the exact number is not on record here.

Take `Cc1ccccc1-n1c(Cn2cnc3c(N)ncnc32)nc2cccc(C)c2c1=O` [IC87114]: in experiment [1], the “efficacy in a mouse model of amphetamine-induced psychosis” value was “remarkable efficacy”.

As for `COc1ncc(N2CCOCC2)cc1S(=O)(=O)Nc1ccnc(-c2c(F)cc(CN3CCN(C(C)C)CC3)cc2F)c1` [Example 8, N-(2-(2,6-Difluoro-4-((4-isopropylpiperazin-1-yl)methyl)phenyl)pyridin-4-yl)-2-methoxy-5-morpholinopyridine-3-sulfonamide], in experiment [2], the IC50 was at most 3.16 nM.

For the compound `CCC(C)N1CCN(Cc2ccc(-c3cc(NS(=O)(=O)c4cc(N5CCOCC5)cnc4OC)ccn3)cc2)CC1` (stereo not shown) [Example 9], in experiment [2], the IC50 is at most 3.16 nM.

As to `COc1ncc(N2CCOCC2)cc1S(=O)(=O)Nc1ccnc(-c2ccc(CN3CCOCC3)cc2)c1` [Example 24, 2-Methoxy-5-morpholino-N-(2-(4-(morpholinomethyl)phenyl)pyridin-4-yl)pyridine-3-sulfonamide], the IC50 in experiment [2] is at most 3.16 nM.
